GI50 and TGI data for 26 compounds are collected here from PubChem BioAssay (NCI).

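These data come from cells grown in 96-well plates and exposed to compound for 48 hours at five concentrations. GI50 marks 50% less growth. Definition used: TGI = concentration required for complete inhibition of growth.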 Bounds are passed on as bounds.

Experiment in all cases: growth of human tumour cells (NCI), 48 h
Experiment [1] has as its system 786-0 renal.
Experiment [2] has as its system EKVX NSCLC.
Experiment [3] relates to HOP-92 NSCLC.
Experiment [4] relates to IGROV1 ovarian.
In experiment [5] the test system is U251 CNS.
Experiment [6] deals with UACC-257 melanoma.
The subject of experiment [7] is UO-31 renal.
The test system of experiment [8] is NCI-H460 lung.
Experiment [9] relates to NCI-H522 lung.
Experiment [10] has as its system MCF7 breast.

As to `CCCCCCCCCCCCCCCC1=NCCN1`, the GI50 in experiment [1] is 1.84 µM; in experiment [2] it was 1.86 µM; in [3], 2.15 µM; in experiment [4], 1.96 µM; in [5], 1.87 µM; in experiment [6] it was 3.25 µM. For the same compound, the GI50 in [7] is 1.65 µM. For the same compound, the TGI worked out at 3.32 µM in experiment [1]; 4.39 µM in [2]; 4.8 µM in experiment [3]; 4.51 µM in experiment [4]; 3.52 µM in [5]; 9.55 µM in experiment [6]. The same compound yielded a TGI in experiment [7] of 3.47 µM.

In the case of `CC(CC(=O)N1C(=O)C(C)(C)[C@@H](O)[C@H]1CC(C)C(Cl)(Cl)Cl)C(Cl)(Cl)Cl` (stereo not given in full), the TGI in experiment [1], in experiment [2], in experiment [3], in [4], in [8] and in [9] was more than 100 µM each time. Moreover, the TGI in [5], in experiment [6] and in experiment [7] was more than 100 µM in each case.

On to `COc1cc(/C=C(\NC(=O)c2ccccc2)c2nc3ccc4c(c3[nH]2)C(=O)c2ccccc2C4=O)cc(OC)c1OC`, for which the TGI in experiment [1], in [2], in experiment [3], in [4], in experiment [9] and in experiment [5] was more than 100 µM throughout. Moreover, the TGI is more than 100 µM in experiment [6] and 13.5 µM in [7].

With `NC(=NCc1ccccc1)C(N=Nc1ccccc1)C(=O)NCc1ccccc1` (stereo not given), the GI50 is 12.1 µM in [1]; 4.49 µM in [2]; 1.78 µM in experiment [3]; 3.42 µM in experiment [4]; 12 µM in [10]; 2.37 µM in [8]. Besides, the GI50 in experiment [5] is 5.75 µM; in [6], 26.8 µM; in experiment [7], 5.87 µM. Besides, the TGI is 30 µM in experiment [1]; 23.5 µM in experiment [2]; 7.38 µM in experiment [3]; 19.8 µM in experiment [4]; 32 µM in [10]; 6.18 µM in [8]. For the same compound, the TGI was 25.9 µM in experiment [5], 69.5 µM in [6] and 29.1 µM in [7].

Take `COc1ccc2c(c1)c(-c1nc(-c3c[nH]c4ncccc34)cs1)cn2CCCN1CCCCC1`: the GI50 was 1.61 µM in [1]; 1.44 µM in experiment [2]; 1.5 µM in experiment [3]; 1.43 µM in [10]; 1.94 µM in experiment [8]; 1.78 µM in experiment [5]. For the same compound, the GI50 in experiment [6] is 1.96 µM; in [7], 1.38 µM. Besides, the TGI in experiment [1] came to 3.06 µM; in [2], 2.9 µM; in [3], 3.1 µM; in [10] it was 2.9 µM; in experiment [8], 3.88 µM; in experiment [5], 3.21 µM. Also, the TGI worked out at 3.69 µM in experiment [6] and 2.83 µM in [7].

Turning to `COc1ccc(/C=C2\CN(C(=O)C(Cl)Cl)C/C(=C\c3ccc(OC)cc3)C2=O)cc1`, the GI50 in experiment [1] is 1.88 µM; in [10] it was 0.296 µM; in [7], 1.33 µM. The TGI in [1] stood at 3.86 µM; in experiment [10] it was 1.51 µM; in [7] it was 2.61 µM.

`O=C1C(=O)N(c2ccc(Cl)cc2)C(=O)C(=O)C1c1nc2ccccc2o1`: the TGI in experiment [1], in [2], in [3], in experiment [4], in [8] and in [9] was more than 100 µM each time. For the same compound, the TGI in experiment [5], in experiment [6] and in experiment [7] was more than 100 µM each time.

Regarding `O=S(=O)([O-])c1ccc(N=Cc2ccccc2[O-])cc1.O=S(=O)([O-])c1ccc(N=Cc2ccccc2[O-])cc1.[Co+2]`, the GI50 in experiment [1] is 76.7 µM; in experiment [2] it was 69.2 µM; in [3], 52.1 µM; in experiment [4], more than 100 µM; in [6], more than 100 µM; in experiment [7], 69.3 µM. Besides, the TGI in experiment [1], in experiment [2], in [3], in experiment [4], in [6] and in [7] was more than 100 µM in each case.

For `CC1CCN(Cc2ccc(NC(=O)c3cc4ccc5cccnc5c4[nH]3)cc2)CC1`, the GI50 in experiment [1] was 2.71 µM; in experiment [3] it was 4.76 µM; in experiment [4], 6.15 µM; in experiment [10], 2.48 µM; in experiment [8], 4.16 µM; in experiment [5], 2.8 µM. Also, the GI50 in experiment [7] is 2.05 µM. Further, the TGI in experiment [1] came to 8.46 µM; in [3], 20.5 µM; in experiment [4] it was 54.1 µM; in [10], 14.7 µM; in experiment [8], 28.1 µM; in [5], 10.3 µM. The compound further registered a TGI in experiment [7] of 8.18 µM.

On to `CN1CN(C2OC(CO)C(O)C2O)c2nc(N)[nH]c(=O)c21` (stereo not given), for which the TGI in experiment [1] was more than 100 µM; in experiment [2], more than 100 µM; in [3] it was more than 100 µM; in experiment [4], more than 100 µM; in [8], more than 100 µM; in experiment [9], 38.5 µM. The TGI in [5], in [6] and in experiment [7] was more than 100 µM throughout.

Consider `COc1cc(-c2nccc3cc(OC)c(OC)cc23)ccc1O`, for which the TGI in experiment [1], in [2], in experiment [3], in experiment [4], in [8] and in [9] was more than 100 µM in each case. Further, the TGI in experiment [5], in experiment [6] and in [7] was more than 100 µM in each case.

In the case of `CCC[CH2][Sn]([CH2]CCC)([O]c1cccc2cccnc12)[O]c1cccc2cccnc12`, the GI50 in experiment [1] is 0.237 µM; in [2], 0.34 µM; in experiment [4] it was 1 µM; in [8], 0.382 µM; in experiment [5], 0.198 µM; in [7], 0.265 µM. Also, the TGI in experiment [1] was determined as 0.607 µM; in [2] it was 1.22 µM; in [4], 2.27 µM; in experiment [8] it was 1.17 µM; in experiment [5], 0.368 µM; in experiment [7], 0.528 µM.

For the compound `CCCCCOCC(O)CO` (stereo not given), the TGI in experiment [1], in [2], in experiment [3], in experiment [4], in experiment [8] and in [5] was more than 100 µM each time. For the same compound, the TGI in [6] was more than 100 µM.

As for `CC(C)N(O)C(=N)c1ccccc1`, the TGI in experiment [1], in experiment [2], in [3], in experiment [8], in experiment [9] and in experiment [5] was more than 100 µM in each case. Moreover, the TGI in [6] and in [7] was more than 100 µM throughout.

Turning to `C[C@]12CCC(=O)C(OC(=O)c3ccc([N+](=O)[O-])cc3)=C1CCC2=O`, the TGI in [1], in experiment [2], in [3], in experiment [4], in experiment [8] and in experiment [9] was more than 100 µM throughout. The TGI in experiment [5] and in experiment [6] was more than 100 µM each time.

As for `N#CC(C(=O)C(=O)Nc1ccccc1)c1ccccc1` (stereo not given), the TGI in experiment [1], in experiment [2], in experiment [3], in experiment [4], in experiment [9] and in [5] was more than 100 µM each time. In addition, the TGI in experiment [6] and in experiment [7] was more than 100 µM each time.

`C=C(CO)CC(O)c1cc(OC)ccc1OC` (stereo not given): the TGI in [1], in [2], in experiment [3], in experiment [4], in [8] and in experiment [9] was more than 100 µM each time. Besides, the TGI in experiment [5], in experiment [6] and in [7] was more than 100 µM throughout.

Take `Cc1ccc(-c2nc3ccccc3c(=O)n2NCC2(O)OCC(O)C(O)C2O)cc1` (stereo not given): the TGI in experiment [1], in experiment [2], in experiment [8], in [9], in experiment [5] and in experiment [6] was more than 100 µM throughout. In [7], the TGI is more than 100 µM.

For `CC(C)C12Cc3c(ccc4ccccc34)OC1(C)Oc1ccc3ccccc3c1C2` (stereo not given), the TGI in experiment [1], in experiment [2], in experiment [3], in experiment [4], in experiment [8] and in [9] was more than 100 µM in each case. Besides, the TGI in experiment [5] and in [7] was more than 100 µM each time.

As to `COC(OC)c1cc2c(cc1C=O)OCO2`, the TGI in [1], in [2], in experiment [3], in experiment [4], in experiment [8] and in experiment [9] was more than 100 µM throughout. Besides, the TGI in experiment [5], in experiment [6] and in experiment [7] was more than 100 µM in each case.

As for `O=C(O)C[C@@H](Cl)[C@H](NC(=O)OCc1ccccc1)C(=O)O`, the TGI in experiment [1], in experiment [2], in experiment [3], in experiment [4], in experiment [8] and in [9] was more than 100 µM each time. Also, the TGI in [5], in [6] and in experiment [7] was more than 100 µM throughout.

For the compound `COC(=O)c1ccccc1N(C(=O)c1ccccc1)c1ccccc1C`, the TGI in experiment [1] was more than 100 µM; in experiment [2], more than 100 µM; in experiment [4], more than 100 µM; in experiment [8] it was more than 100 µM; in experiment [9], 86.1 µM; in experiment [5], more than 100 µM. Further, the TGI in [6] and in experiment [7] was more than 100 µM in each case.

Consider `N#CC12CCC1C1CCCCC12N1CCSCC1` (stereo not given), for which the TGI in experiment [1] is more than 100 µM; in experiment [3] it was more than 100 µM; in [4], more than 100 µM; in experiment [8] it was more than 100 µM; in experiment [5] it was more than 100 µM; in experiment [6], more than 10 µM. Also, the TGI in experiment [7] was more than 100 µM.

On to `O=S(=O)(CCN1CCOCC1)Nc1cc(-c2ccc3ncnc(Nc4ccc(F)c(Cl)c4)c3c2)cnc1Cl`, for which the GI50 in [1] was 0.41 µM; in experiment [2], 0.282 µM; in experiment [4], 0.137 µM; in experiment [10], 0.335 µM; in [8] it was 1.56 µM; in [5] it was 0.909 µM. For the same compound, the GI50 in experiment [6] is 0.498 µM; in experiment [7], 0.267 µM. The TGI was more than 100 µM in [1]; 3.64 µM in experiment [2]; 0.515 µM in experiment [4]; 22.9 µM in experiment [10]; 19.6 µM in experiment [8]; 10.5 µM in experiment [5]. The TGI in experiment [6] turned out to be 8.12 µM; in experiment [7], 2.13 µM.

`N.N.N.N.N.NC(=O)[O-].[Co+3].[I-]`: the GI50 in experiment [1], in experiment [2], in experiment [3], in experiment [4], in experiment [8] and in experiment [9] was more than 100 µM in each case. For the same compound, the GI50 in [5], in [6] and in experiment [7] was more than 100 µM throughout. Also, the TGI in experiment [1], in experiment [2], in experiment [3], in [4], in experiment [8] and in experiment [9] was more than 100 µM each time. The TGI in experiment [5], in experiment [6] and in experiment [7] was more than 100 µM each time.

With `COc1cc(OC)c(C(=O)c2cccs2)cc1N`, the TGI in [1], in experiment [2], in experiment [4], in experiment [8], in experiment [5] and in experiment [6] was more than 100 µM each time. In experiment [7], the TGI is more than 100 µM.
